Assay results taken from patent publication US20260001910A1, “PEPTIDES AND USES THEREOF” (PreveCeutical Medical Inc., priority 2021, published 2026).

Legend:
[1] = Text: (§1) The MTT (3-[4.5-dimethylthiazol-2-yl]-2,5=diphenyl tetrazolium bromide) assay is based on a process undertaken by living cells, involving the conversion of MTT into formazan crystals. This assay is used routinely to measure the in vitro cytotoxic effects of drugs on cell lines or primary patient cells (Van Meerloo et al., 2011).
(§2) The glioblastoma multiforme (GBM) cell lines used were U87 and U251 cells and patient derived cells grown as oncospheres (081024 cells). Human adherent GBM cell lines U87 and U251 were cultured in RPMI medium (Life Technologies Melbourne Australia) supplemented with 5% v/v FBS, 100 U/mL penicillin and 100 μg/mL streptomycin. 081024 cells were cultured in NeuroCult™ NS-A Proliferation medium with 0.2% (v/v) hepain, 20 ng/mL EGF and 10 ng/ml FGF.
(§3) 8×10^3 U87 and 7×10^3 U251 cells per well were seeded in 96 well plates in 200 μL serum-containing RPMI medium and incubated at 37° C. with 5% CO2 for 24 hours. After one wash with serum-free medium, 100 μL serum-free medium with different concentration of peptide SEQ ID NO:1 was added to each well. After 48 hours incubation, 10 μL of 0.5 mg/mL MTT was added and incubated for 2 hours at 37° C. Formazan crystals were dissolved by 200 μL/well dimethyl sulfoxide (DMSO) and shaking for 15 minutes. The UV absorbance was read with an iMark™ microplate absorbance reader at 595 nm (Bio-Rad Laboratories). Background absorbance was subtracted and results expressed as the % viability of control (untreated cells).

[2] = tested on: U87, U251 and 081024 cells; settings: MTT, all three GBM cell lines
Text: as §1, §2, §3

recombinant MMP-2 = molecular target: T1, recombinant MMP-2 (Homo sapiens, UniProt P08253); experiment: MMP-2 Inhibitor Screening Assay Kit (colorimetric); assay type: biochemical
T1 construct: purchased ab139446
Protocol: MMP-2 is an important target for inhibitor screening due to its involvement in cancer growth, angiogenesis, and metastasis. The MMP-2 screening assay was carried out with a commercially available MMP-2 Inhibitor Screening Assay Kit (Colorimetric, Catalog: ab139446) based on the manufacturers protocol. This assay is based on quantification of recombinant MMP-2 activity using a colorimetric assay (MMP-2 degrades a chromogenic substrate). The assay provides NNGH (N-isobutyl-N-(4-methoxyphenylsulfonyl) glycyl hydroxamic acid), a small molecule inhibitor, as a positive control (NNGH). […] Each determination was run in duplicate.
Briefly, MMP Substrate and MMP Inhibitor were warmed to room temperature to thaw DMSO. MMP Inhibitor (NNGH), MMP-2 substrate and MMP-2 enzyme were diluted with assay buffer to required concentration. 20 μL of MMP-2 enzyme and MMP-2 inhibitor (peptides, Chlorotoxin and NNGH) was added, then 50 μL of assay buffer was added and the reaction mixture incubated at 37° C. for 1 h. After incubation, 10 μL of MMP Substrate was added to start reaction. The reactions were continuously read at 412 nm in a microplate reader. Data was recorded at 1 min. time intervals for 10 to 20 min. The data as was plotted as optical density (OD) versus time for each sample. The reaction velocity (V) was obtained in OD/min: determine the slope of a line fit to the linear portion of the data plot using an appropriate routine. Then using the equation above the inhibitor % activity remaining was calculated. The control was without inhibitor.

MMP-2 mRNA = experiment: Real time RT-PCR mRNA expression; assay type: cell-based, human
Text: (§4) The real-time reverse transcription polymerase chain reaction (RT-PCR) uses fluorescent reporter molecules to monitor the production of amplification products during each cycle of the PCR reaction. This combines the nucleic acid amplification and detection steps into one homogeneous assay and use of appropriate chemistries and data analysis eliminates the need for Southern blotting or DNA sequencing for amplicon identification. Its simplicity, specificity and sensitivity, together with its potential for high throughput and the ongoing introduction of new chemistries, more reliable instrumentation and improved protocols, has made real-time RT-PCR the benchmark technology for the detection and/or comparison of RNA levels.′
(§5) In order to detect and quantify the expression of specific genes at mRNA level, real-time reverse transcriptase polymerase chain reaction (Real time RT-PCR) was performed. Total RNA of samples was isolated and purified using the PureLink® RNA Mini Kit (Life technologies). The concentration of total RNA was detected by NanoDrop 2000 Spectrophotometer (Thermo Scientific). The total RNA (2000 ng) was reverse transcribed using the High-Capacity cDNA Reverse Transcription Kit (Applied Biosystems™).
(§6) The primers of target genes were TaqMan™ Gene Expression Assay for human PLAU (Hs01547054_m1), MMP-2 (Hs01548727_ml), MMP-9 (Hs00957562_m1), Snail-1 (Hs00195591_m1), Snail-2 (Hs00161904_m1), N-cadherin (Hs00983056_m1) and Twist (Hs01675818_s1). Relative quantification was done by reference to 18S ribosomal RNA (18S rRNA) and analysed using the comparative critical threshold (Ct) method
(§7) The mRNA expression of MMPs was measured using qRT-PCR. This was tested three independent times; the results are shown in Tables 8, 9 and 10 for U251, U87 cells and 081024 cells respectively. Results are reported as percent of the control cells (no treatment). SEQ ID NO.

MMP-9 mRNA = experiment: Real time RT-PCR mRNA expression; assay type: cell-based, human
Text: as §4, §5, §6, §7

uPA (PLAU) mRNA = experiment: Real time RT-PCR mRNA expression; assay type: cell-based, human
Text: as §4, §5, §6, §7

[3] = 081024 cells, baseline expression level = 1
[4] = U87 cells, baseline expression level = 1
[5] = U251 cells, relative to untreated control, 18S rRNA reference

T1 sequence (P08253 110-446 limits assumed): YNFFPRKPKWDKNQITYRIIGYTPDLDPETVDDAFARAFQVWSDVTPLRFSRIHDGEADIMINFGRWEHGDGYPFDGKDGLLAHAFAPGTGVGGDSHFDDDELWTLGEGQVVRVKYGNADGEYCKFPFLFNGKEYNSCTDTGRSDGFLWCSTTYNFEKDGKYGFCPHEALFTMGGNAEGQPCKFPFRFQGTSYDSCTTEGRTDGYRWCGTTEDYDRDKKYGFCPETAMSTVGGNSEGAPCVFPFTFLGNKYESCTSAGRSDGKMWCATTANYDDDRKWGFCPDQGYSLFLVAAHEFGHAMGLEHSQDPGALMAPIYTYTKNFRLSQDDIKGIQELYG

Structure (SMILES): CC(C)C[C@@H](NC(=O)[C@@H](Cc1ccccc1)NC(=O)CNC(=O)CNC(=O)[C@H](N)Cc1ccc(O)cc1)C(=O)N[C@H](CCCNC(=N)N)C(=O)N[C@H](CCCNC(=N)N)C(N)=O [SEQ ID NO. 1, tyr-Gly-Gly-phe-leu-arg-arg-NH2]
- viability at 5 µM [1]: 95.8%
- viability at 50 µM [1]: 99.1%
- viability at 100 µM [1]: 93.4%
- highest concentration which did not significantly affect cell viability [2]: 0.5 mM
- activity at 1 µM (recombinant MMP-2; 1 μM, lower % = higher inhibitory activity, read-out: % inhibition (MMP-2 inhibitor screening)): 66.4%
- activity at 10 µM (recombinant MMP-2; 10 μM, lower % = higher inhibitory activity, read-out: % inhibition (MMP-2 inhibitor screening)): 61.8%
- activity at 100 µM (recombinant MMP-2; 100 μM, lower % = higher inhibitory activity, read-out: % inhibition (MMP-2 inhibitor screening)): 50.4%
- ability to inhibit MMP-2 activity (in words) (recombinant MMP-2; 1 to 100 μM): dose dependent ability to inhibit MMP-2 activity
- MMP-2 mRNA expression (MMP-2 mRNA; [3]): 0.72
- MMP-2 mRNA expression (MMP-2 mRNA; [4]): 0.74
- effect on mRNA expression of MMP-2 (in words) (MMP-2 mRNA; U251, U87 and 081024 cells): did not have a statistically significant effect
- MMP-2 mRNA expression (MMP-2 mRNA; [5]): 0.95
- MMP-9 mRNA expression (MMP-9 mRNA; [3]): 0.54
- MMP-9 mRNA expression (MMP-9 mRNA; [4]): 0.71
- effect on mRNA expression of MMP-9 (in words) (MMP-9 mRNA; U251, U87 and 081024 cells): did not have a statistically significant effect
- MMP-9 mRNA expression (MMP-9 mRNA; [5]): 1.10
- uPA mRNA expression (uPA (PLAU) mRNA; [3]): 0.67
- uPA mRNA expression (uPA (PLAU) mRNA; [4]): 1.20
- effect on mRNA expression of uPA (in words) (uPA (PLAU) mRNA; U251, U87 and 081024 cells): did not have a statistically significant effect
- uPA mRNA expression (uPA (PLAU) mRNA; [5]): 0.82
